Source: US20140303092A1 (CHIMERIX, INC., priority 2011, published 2014)

Assay: Study HDP-CDV-201: safety and tolerability (adverse events, laboratory abnormalities, discontinuations)
Format: in vivo, human (adult allogeneic HSCT recipients)
Conditions: 40 mg QW
Experimental: Clinical Studies of HDP-CDV were performed and described in detail in the following Examples. For example, HDP-CDV-201 is a placebo-controlled, dose-escalating trial in HSCT CMV (R+) recipients, evaluating the ability of HDP-CDV to prevent or control CMV infection was carried out. Five cohorts were established in which participants or subjects received either placebo or the HDP-CDV orally, in doses ranging from 40 mg weekly (QW) to 200 mg twice weekly (BIW). Subjects who were post-HSCT were enrolled at the time of engraftment and randomized to HDP-CDV or placebo (3 to 1 ratio) and received blinded therapy until approximately 100 day post-transplantation. HDP-CDV doses were 40 mg QW, 100 mg QW, 200 mg QW, 200 mg BIW and 100 mg BIW. Escalation to the next dose was decided by the data monitoring committee after review of the safety data from the previous Cohort. Subjects who developed CMV disease or CMV infection requiring pre-emptive therapy with local standard of care were discontinued from blinded therapy and followed for 4 weeks. Subjects who completed treatment with blinded therapy were followed for 8 weeks post-therapy.
Data from Study HDP-CDV-201 also provided characterization of the safety and tolerability profile of HDP-CDV when administered for the prevention or control of CMV infection in high risk (R^+) post-HSCT adult subjects.
The Safety population (SAFETY) included all randomized subjects who took at least one dose of study treatment. This population was used to summarize safety outcomes based on the treatment actually received, in cases where a subject was treated contrary to the randomization schedule.
The safety and tolerability profile of HDP-CDV, including subject demographics and Baseline characteristics; the AE profile; and laboratory abnormalities of interest were analyzed in the cohorts followed in this investigation.
Subjects completing the treatment period received a full course of study medication; those completing the entire study attended visits through 8 weeks of follow up. Subjects who discontinued treatment may have done so for protocol specified reasons (e.g. development of clinically significant CMV infection requiring preemptive treatment with excluded anti-CMV medications) or for other reasons (e.g., withdrawal, adverse events, loss to follow-up). The disposition of subjects in Study HDP-CDV-201 during the double-blind, placebo-controlled treatment period (through Week 11) is listed by dosing Cohort in TABLE 23.
Adverse events were examined by severity to ensure that all safety signals were identified in this study population. Because of the frequency of events in HSCT recipients, particular attention was given to evaluation of Grade 3 […], 4 (severe), and 5 (fatal) adverse events.
Only those preferred terms for which at least one Grade 3 or higher event was experienced in any treatment group are listed. Cytomegalovirus-related AEs are excluded from this analysis.
HDP-CDV is a lipid conjugate of CDV. Because CDV is known to have adverse effects on renal function and bone marrow, decreased GFR and persistent neutropenia were identified as AEs of special interest. Key renal and hematological (TABLE 30) laboratory parameters were measured and listed below by Study HDP-CDV-201 treatment groups. TABLE 30 includes abnormal levels of serum creatinine, neutrophils, platelets, WBCs, and hemoglobin and includes data at Screening and during the treatment period.
A common metric for unit based dosing of medications is by weight (mg/kg). When the distribution of weights was examined for all subjects participating in the study, the median was 78 kg and the lower 25th percentile weight was approximately 65 kg, which translates to a cut-off of ˜3 mg/kg for a 200 mg total weekly dose. Based upon this approach, a cut-off of 3 mg/kg was used to assess the frequency of diarrhea and associated GI AEs reported for the subjects in Cohorts 3 or 4a (TABLE 40).

CCCCCCCCCCCCCCCCOCCCOP(=O)(O)COC(CO)Cn1ccc(N)nc1=O (stereo not drawn) [HDP-CDV]
4 (16.0%): TEAE Abdominal pain, Frequency | TEAE Decreased appetite, Frequency | TEAE Hypokalaemia, Frequency
3 (12.0%): TEAE AML, Recurrent, Frequency | TEAE Diarrhea, Frequency | TEAE Hyponatraemia, Frequency
2 (8.0%): TEAE ALT increased, Frequency | TEAE Acute GVHD, Grade 2 | TEAE Diarrhea, Grade 2 | TEAE Hypokalaemia, Grade 3 | TEAE Nausea, Grade 2 | TEAE Neutropenia, Frequency | TEAE Neutropenia, Grade 3
1 (4.0%): TEAE ALT increased, Grade 2 | TEAE ALT increased, Grade 3 | TEAE AML, Recurrent, Grade 4 | TEAE AST increased, Frequency | TEAE AST increased, Grade 3 | TEAE Abdominal pain, Grade 3 | TEAE Acute GVHD, Grade 3 | TEAE Decreased appetite, Grade 2 | TEAE Decreased appetite, Grade 3 | TEAE Fatigue, Frequency | TEAE Generalized oedema, Frequency | TEAE Generalized oedema, Grade 2 | TEAE Hyperbilirubinaemia, Frequency | TEAE Hyperbilirubinaemia, Grade 4 | TEAE Hyperglycaemia, Frequency | TEAE Hyperglycaemia, Grade 2 | TEAE Hyperkalemia, Frequency | TEAE Hypocalcaemia, Frequency | TEAE Hypocalcaemia, Grade 2 | TEAE Hyponatraemia, Grade 2 | TEAE Hyponatraemia, Grade 3 | TEAE Leukocytosis, Frequency | TEAE Nausea, Grade 3 | TEAE Pneumonia, Frequency
6 (24.0%): TEAE Acute GVHD, Frequency | TEAE Nausea, Frequency
0: TEAE ALT increased, Grade 4 | TEAE ALT increased, Grade 5 | TEAE AML, Recurrent, Grade 2 | TEAE AML, Recurrent, Grade 3 | TEAE AML, Recurrent, Grade 5 | TEAE AST increased, Grade 2 | TEAE AST increased, Grade 4 | TEAE AST increased, Grade 5 | TEAE Abdominal pain, Grade 2 | TEAE Abdominal pain, Grade 4 | TEAE Abdominal pain, Grade 5 | TEAE Arthralgias, Frequency | TEAE Arthralgias, Grade 2 | TEAE Arthralgias, Grade 3 | TEAE Arthralgias, Grade 4 | TEAE Arthralgias, Grade 5 | TEAE Back Pain, Frequency | TEAE Back Pain, Grade 2 | TEAE Back Pain, Grade 3 | TEAE Back Pain, Grade 4 | TEAE Back Pain, Grade 5 | TEAE Decreased appetite, Grade 4 | TEAE Decreased appetite, Grade 5 | TEAE Diarrhea, Grade 3 | TEAE Diarrhea, Grade 4 | TEAE Diarrhea, Grade 5 | TEAE Fatigue, Grade 2 | TEAE Fatigue, Grade 3 | TEAE Fatigue, Grade 4 | TEAE Fatigue, Grade 5 | TEAE GGT Increased, Frequency | TEAE GGT Increased, Grade 2 | TEAE GGT Increased, Grade 3 | TEAE GGT Increased, Grade 4 | TEAE GGT Increased, Grade 5 | TEAE Generalized oedema, Grade 3 | TEAE Generalized oedema, Grade 4 | TEAE Generalized oedema, Grade 5 | TEAE Hyperbilirubinaemia, Grade 2 | TEAE Hyperbilirubinaemia, Grade 3 | TEAE Hyperbilirubinaemia, Grade 5 | TEAE Hyperglycaemia, Grade 3 | TEAE Hyperglycaemia, Grade 4 | TEAE Hyperglycaemia, Grade 5 | TEAE Hyperkalemia, Grade 2 | TEAE Hyperkalemia, Grade 3 | TEAE Hyperkalemia, Grade 4 | TEAE Hyperkalemia, Grade 5 | TEAE Hypocalcaemia, Grade 3 | TEAE Hypocalcaemia, Grade 4 | TEAE Hypocalcaemia, Grade 5 | TEAE Hypokalaemia, Grade 2 | TEAE Hypokalaemia, Grade 4 | TEAE Hypokalaemia, Grade 5 | TEAE Hyponatraemia, Grade 4 | TEAE Hyponatraemia, Grade 5 | TEAE LFT Abnormal, Frequency | TEAE LFT Abnormal, Grade 2 | TEAE LFT Abnormal, Grade 3 | TEAE LFT Abnormal, Grade 4 | TEAE LFT Abnormal, Grade 5 | TEAE Leukocytosis, Grade 2 | TEAE Leukocytosis, Grade 3 | TEAE Leukocytosis, Grade 4 | TEAE Leukocytosis, Grade 5 | TEAE Nausea, Grade 4 | TEAE Nausea, Grade 5 | TEAE Neutropenia, Grade 2 | TEAE Neutropenia, Grade 4 | TEAE Neutropenia, Grade 5 | TEAE Pneumonia, Grade 2 | TEAE Pneumonia, Grade 3
